Data on 21 compounds can be found in US9499550B2 (BRISTOL-MYERS SQUIBB COMPANY, priority 2012, dated 2016).

In general, EC50 refers to the concentration needed to bring the measured effect to its halfway point.

Where two headings read alike, the source gives them in different places.

The subject of experiment [1] is HCV genotype 1b (Con1) replicon in HUH-7 cells. The experiment in a line: HCV replicon luciferase reporter assay, genotype 1b. Type of experiment: cell-based. The settings on record: Hepatitis C virus, Huh-7, 72 h, HCV genotype 1b replicon luciferase, 3 days incubation, read-out: LE_1b (EC50, range). In a few lines:
(§1)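 Replicon inhibition for both genotypes was measured as Renilla luciferase signal (EnduRen, 7.5 μM final, 2 h) after 3-day, 37° C exposure of replicon-bearing HUH-7 cells in 4% FCS DMEM, 0.5% DMSO. The 1b construct carries S1179I; the 1a H77 construct carries P1496L and S2204I. Twenty-point, 3-fold dilutions were fitted four-parametrically for EC50, and CC50 was taken from multiplexed Cell Titer-Blue.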
(In antiviral work, replicon cells carry a viral genome segment that copies itself.)

Experiment [2] concerns HCV genotype 1a (H77 strain) replicon in HUH-7 cells. The experiment in a line: HCV replicon luciferase reporter assay, genotype 1a. It is filed as cell-based. The settings on record: Hepatitis C virus, Huh-7, 72 h, HCV genotype 1a replicon luciferase, 3 days incubation, read-out: LE_1a (EC50, range). In a few lines:
as §1

As for `CC[C@@H]1C[C@H](C)CC/C=C\[C@@H]2C[C@@]2(C(=O)NS(=O)(=O)C2CC2)NC(=O)[C@@H]2C[C@@H](Oc3ncc(OC)c4ccc(F)cc34)CN2C(=O)[C@H]1NC(=O)OC(C)(C)C(F)(F)F` [Compound 4002, 1,1,1-trifluoro-2-methylpropan-2-yl (2R,6S,7R,9R,13aS,14aR,16aS,Z)-14a-(cyclopropylsulfonylcarbamoyl)-7-ethyl-2-(7-fluoro-4-methoxyisoquinolin-1-yloxy)-9-methyl-5,16-dioxo-1,2,3,5,6,7,8,9,10,11,13a,14,14a,15,16,16a-hexadecahydrocyclopropa[e]pyrrolo[1,2-a][1,4]diazacyclopentadecin-6-ylcarbamate], the EC50 in experiment [1] and in experiment [2] was under 5.46 nM each time.
Consider `CC[C@@H]1C[C@H](C)CC/C=C\[C@@H]2C[C@@]2(C(=O)NS(=O)(=O)C2CC2)NC(=O)[C@@H]2C[C@@H](Oc3nccc4cc(OC)c(F)cc34)CN2C(=O)[C@H]1NC(=O)OC(C)(C)C` [Compound 4003, tert-butyl (2R,6S,7R,9R,13aS,14aR,16aS,Z)-14a-(cyclopropylsulfonylcarbamoyl)-7-ethyl-2-(7-fluoro-6-methoxyisoquinolin-1-yloxy)-9-methyl-5,16-dioxo-1,2,3,5,6,7,8,9,10,11,13a,14,14a,15,16,16a-hexadecahydrocyclopropa[e]pyrrolo[1,2-a][1,4]diazacyclopentadecin-6-ylcarbamate], for which the EC50 in experiment [1] and in experiment [2] was under 5.46 nM in each case.
Turning to `CC[C@@H]1C[C@H](C)CC/C=C\[C@@H]2C[C@@]2(C(=O)NS(=O)(=O)C2CC2)NC(=O)[C@@H]2C[C@@H](Oc3nccc4cc(OC)c(F)cc34)CN2C(=O)[C@H]1NC(=O)OC(C)(C)C(F)(F)F` [Compound 4004, 1,1,1-trifluoro-2-methylpropan-2-yl (2R,6S,7R,9R,13aS,14aR,16aS,Z)-14a-(cyclopropylsulfonylcarbamoyl)-7-ethyl-2-(7-fluoro-6-methoxyisoquinolin-1-yloxy)-9-methyl-5,16-dioxo-1,2,3,5,6,7,8,9,10,11,13a,14,14a,15,16,16a-hexadecahydrocyclopropa[e]pyrrolo[1,2-a][1,4]diazacyclopentadecin-6-ylcarbamate], the EC50 in experiment [1] and in experiment [2] was under 5.46 nM throughout.
Consider `CC[C@@H]1C[C@H](C)CC/C=C\[C@@H]2C[C@@]2(C(=O)NS(=O)(=O)C2CC2)NC(=O)[C@@H]2C[C@@H](Oc3nccc4cc(OC)ccc34)CN2C(=O)[C@H]1NC(=O)OC(C)(C)C` [Compound 4005, tert-butyl (2R,6S,7R,9R,13aS,14aR,16aS,Z)-14a-(cyclopropylsulfonylcarbamoyl)-7-ethyl-2-(6-methoxyisoquinolin-1-yloxy)-9-methyl-5,16-dioxo-1,2,3,5,6,7,8,9,10,11,13a,14,14a,15,16,16a-hexadecahydrocyclopropa[e]pyrrolo[1,2-a][1,4]diazacyclopentadecin-6-ylcarbamate], for which the EC50 in experiment [1] and in experiment [2] was under 5.46 nM throughout.
With `CC[C@@H]1C[C@H](C)CC/C=C\[C@@H]2C[C@@]2(C(=O)NS(=O)(=O)C2CC2)NC(=O)[C@@H]2C[C@@H](Oc3nccc4cc(OC)ccc34)CN2C(=O)[C@H]1NC(=O)OC(C)(C)C(F)(F)F` [Compound 4006, 1,1,1-trifluoro-2-methylpropan-2-yl (2R,6S,7R,9R,13aS,14aR,16aS,Z)-14a-(cyclopropylsulfonylcarbamoyl)-7-ethyl-2-(6-methoxyisoquinolin-1-yloxy)-9-methyl-5,16-dioxo-1,2,3,5,6,7,8,9,10,11,13a,14,14a,15,16,16a-hexadecahydrocyclopropa[e]pyrrolo[1,2-a][1,4]diazacyclopentadecin-6-ylcarbamate], the EC50 in experiment [1] and in experiment [2] was under 5.46 nM throughout.
Regarding `C=C1C=Cc2c(O[C@@H]3C[C@H]4C(=O)N[C@]5(C(=O)NS(=O)(=O)C6CC6)C[C@H]5/C=C\CC[C@@H](C)C[C@@H](CC)[C@H](NC(=O)OC(C)(C)C)C(=O)N4C3)ncc(OC)c2C1` [Compound 4007], the EC50 in experiment [1] and in experiment [2] was under 5.46 nM throughout.
As for `COc1ccc2c(O[C@@H]3C[C@H]4C(=O)N[C@]5(C(=O)NS(=O)(=O)C6(C)CC6)C[C@H]5/C=C\CC[C@@H](C)C[C@@H](C)[C@H](NC(=O)OC(C)(C)C(F)(F)F)C(=O)N4C3)ncc(N3CCN(C)CC3)c2c1` [Compound 4013], the EC50 in experiment [1] (GETYPE1B) and in experiment [2] (GETYPE1A) was under 5.46 nM in each case.
For the compound `COc1ccc2c(O[C@@H]3C[C@H]4C(=O)N[C@]5(C(=O)NS(=O)(=O)C6(F)CC6)C[C@H]5/C=C\CC[C@@H](C)C[C@@H](C)[C@H](NC(=O)C(C)(C)C)C(=O)N4C3)nccc2c1` [Compound 4015], the 50% effective concentration (EC50) in experiment [1] and in experiment [2] was under 5.46 nM each time.
On to `COc1ccc2c(O[C@@H]3C[C@H]4C(=O)N[C@]5(C(=O)NS(=O)(=O)C6(F)CC6)C[C@H]5/C=C\CC[C@@H](C)C[C@@H](C)[C@H](NC(=O)OC(C)C)C(=O)N4C3)nccc2c1` [Compound 4016], for which the EC50 in experiment [1] and in experiment [2] was under 5.46 nM in each case.
`CC(C)Oc1cnc(O[C@@H]2C[C@H]3C(=O)N[C@]4(C(=O)NS(=O)(=O)C5CC5)C[C@H]4/C=C\CC[C@@H](C)C[C@@H](C)[C@H](NC(=O)OC(C)(C)C(F)(F)F)C(=O)N3C2)c2cccc(Cl)c12` [Compound 4017]: the EC50 in experiment [1] and in experiment [2] was under 5.46 nM throughout.
For the compound `COc1ccc2c(O[C@@H]3C[C@H]4C(=O)N[C@]5(C(=O)NS(=O)(=O)C6(F)CC6)C[C@H]5/C=C\CC[C@@H](C)C[C@@H](C)[C@H](NC(=O)OCC(C)C)C(=O)N4C3)nccc2c1` [Compound 4018], the half-maximal effective concentration (EC50) in experiment [1] and in experiment [2] was under 5.46 nM throughout.
`COc1ccc2c(O[C@@H]3C[C@H]4C(=O)N[C@]5(C(=O)NS(=O)(=O)C6(F)CC6)C[C@H]5/C=C\CC[C@@H](C)C[C@@H](C)[C@H](NC(=O)OC5CCCC5)C(=O)N4C3)nccc2c1` [Compound 4019]: the EC50 in experiment [1] and in experiment [2] was under 5.46 nM each time.
Turning to `COc1ccc2c(O[C@@H]3C[C@H]4C(=O)N[C@]5(C(=O)NS(=O)(=O)C6(F)CC6)C[C@H]5/C=C\CC[C@@H](C)C[C@@H](C)[C@H](NC(=O)O[C@H](C)C(F)(F)F)C(=O)N4C3)nccc2c1` [Compound 4020], the EC50 in experiment [1] and in experiment [2] was under 5.46 nM each time.
With `COc1ccc2c(O[C@@H]3C[C@H]4C(=O)N[C@]5(C(=O)NS(=O)(=O)C6(F)CC6)C[C@H]5/C=C\CC[C@@H](C)C[C@@H](C)[C@H](NC(=O)OCC(C)(C)C)C(=O)N4C3)nccc2c1` [Compound 4022], the EC50 in experiment [1] and in experiment [2] was under 5.46 nM throughout.
`COc1cc2ccnc(O[C@@H]3C[C@H]4C(=O)N[C@]5(C(=O)NS(=O)(=O)C6(F)CC6)C[C@H]5/C=C\CC[C@@H](C)C[C@@H](C)[C@H](NC(=O)OC(C)(C)C)C(=O)N4C3)c2cc1Cl` [Compound 4024, tert-butyl (2R,6S,7R,9R,13aS,14aR,16aS,Z)-2-(7-chloro-6-methoxyisoquinolin-1-yloxy)-14a-(1-fluorocyclopropylsulfonylcarbamoyl)-7,9-dimethyl-5,16-dioxo-1,2,3,5,6,7,8,9,10,11,13a,14,14a,15,16,16a-hexadecahydrocyclopropa[e]pyrrolo[1,2-a][1,4]diazacyclopentadecin-6-ylcarbamate]: the EC50 in experiment [1] and in experiment [2] was under 5.46 nM in each case.
Turning to `CCOc1cnc(O[C@@H]2C[C@H]3C(=O)N[C@]4(C(=O)NS(=O)(=O)C5CC5)C[C@H]4/C=C\CC[C@@H](C)C[C@@H](C)[C@H](NC(=O)OC(C)(C)C(F)(F)F)C(=O)N3C2)c2cccc(Cl)c12` [Compound 4025], the EC50 in experiment [1] and in experiment [2] was under 5.46 nM each time.
For the compound `COc1ccc2c(O[C@@H]3C[C@H]4C(=O)N[C@]5(C(=O)NS(=O)(=O)C6CC6)C[C@H]5/C=C\CC[C@@H](C)C[C@@H](C)[C@H](NC(=O)OC(C)(C)C)C(=O)N4C3)nc(-c3ccc(OC(C)C)cc3)cc2c1` [Compound 4026, tert-butyl (2R,6S,7R,9R,13aS,14aR,16aS,Z)-14a-(cyclopropylsulfonylcarbamoyl)-2-(3-(4-isopropoxyphenyl)-6-methoxyisoquinolin-1-yloxy)-7,9-dimethyl-5,16-dioxo-1,2,3,5,6,7,8,9,10,11,13a,14,14a,15,16,16a-hexadecahydrocyclopropa[e]pyrrolo[1,2-a][1,4]diazacyclopentadecin-6-ylcarbamate], the concentration for a half-maximal effect (EC50) in experiment [1] and in experiment [2] was under 5.46 nM in each case.
In the case of `COc1ccc2c(O[C@@H]3C[C@H]4C(=O)N[C@]5(C(=O)NS(=O)(=O)C6CC6)C[C@H]5/C=C\CC[C@@H](C)C[C@@H](C)[C@H](NC(=O)OC(C)(C)C(F)(F)F)C(=O)N4C3)nc(-c3ccc(OC(C)C)cc3)cc2c1` [Compound 4027], the EC50 in experiment [1] (GETYPE1B) and in experiment [2] (GETYPE1A) was under 5.46 nM each time.
Take `COc1ccc2c(O[C@@H]3C[C@H]4C(=O)N[C@]5(C(=O)NS(=O)(=O)C6(F)CC6)C[C@H]5/C=C\CC[C@@H](C)C[C@@H](C)[C@H](NC(=O)OC(C)(C)C(F)(F)F)C(=O)N4C3)ncc(Cl)c2c1` [Compound 4028]: the EC50 in experiment [1] (GETYPE1B) and in experiment [2] (GETYPE1A) was under 5.46 nM throughout.
On to `COc1ccc2c(O[C@@H]3C[C@H]4C(=O)N[C@]5(C(=O)NS(=O)(=O)C6(F)CC6)C[C@H]5/C=C\CC[C@@H](C)C[C@@H](C)[C@H](NC(=O)c5ccccc5F)C(=O)N4C3)nccc2c1` [Compound 4029], for which the EC50 in experiment [1] and in experiment [2] was under 5.46 nM each time.
For the compound `C[C@@H]1CC/C=C\[C@@H]2C[C@@]2(C(=O)NS(=O)(=O)C2CC2)NC(=O)[C@@H]2C[C@@H](Oc3ncc(OCC4CC4)c4ccccc34)CN2C(=O)[C@@H](NC(=O)CC(C)(C)C(F)(F)F)[C@H](C)C1` [Compound 4030], the concentration for a half-maximal effect (EC50) in experiment [1] and in experiment [2] was under 5.46 nM throughout.
